# Measured values as given in patent US20250221981A1, “MAT2A INHIBITOR AND/OR TSG101 INHIBITOR FOR USE IN ANTIVIRAL THERAPY” (CAMBRIDGE ENTERPRISE LIMITED, priority 2022, published 2025).
# Assays:
# Zika American Strain = experiment: Western blot of Zika E protein in VERO E6 cells, American strain; assay type: cell-based, Zika virus; conditions: 20 μM, MOI >10, 48 hrs
# Procedure: (B) Zika: VERO E6 cells were plated. The following day 20 μM PF-9366 or DMSO control was added to media. After 3 hrs cells were infected with Zika African strain, American Strain or Mock infected (MOI >10). After 48 hrs cells were harvested by scraping, pelleted and lysed into lysis buffer. Western blot was then conducted on the lysed cells. Protein embedded SDS-PAGE gels were transferred to membranes overnight and then probed for Zika E protein and GAPDH as a control.
# For Flavivirus infections VERO E6 cells were infected with either African (Afn) or American (Amer) Zika at a multiplicity of infection (MOI) greater than 10, diluted in appropriate medium. At 1 hour post infection (hpi) medium was removed, cells were washed twice with phosphate-buffered saline (PBS), and fresh medium was added. At 48 hpi cells were either harvested for western blot.
# Cell lysate preparation and western blots were performed as described in Ren et al. (J Gen Virol. 2012 February; 93 (Pt 2): 319-329). Primary antibodies used were ab53977 (VP1), PAb416 (LTAg), sc-166452 (MAT2A/1A), ab110226 (VP16), sc-53070 (ICP0), anti-Zika E Protein, and either anti-GAPDH or anti-tubulin as a loading control, followed by IRDye 680LT-, or IRDye 800CW-conjugated secondary antibodies. Imaging was performed using the LI-COR Odyssey Infrared Imaging system. Quantification was performed using LI-COR Image Studio Software. […]
# [1] = system: Semliki Forest Virus 4 (SFV4); experiment: SFV4 titre by plaque assay (BHK-21 cells infected, titrated on BSR cells); assay type: cell-based; conditions: 2 μM, MOI >10, 24 hrs, initial tests
# Procedure: (§1) (A) SINV and SFV4: BHK-21 cells were plated. The following day 2 μM PF-9366 or DMSO control was added to media. After 3 hrs cells were infected with SINV or SFV4 (MOI >10). After 24 hrs cells were harvested by scraping. Cells were either pelleted for western blot or freeze/thawed for titration. To titre: BSR cells were plated and the following day infected with 10-fold dilutions, at 1 hpi cells were overlayed with LMA in 2×MEM (+5% FCS). At 72 hpi cells were fixed and stained with toluidine blue.
# (§2) For Alphavirus infections BHK-21 cells were infected with either SINV or SFV-4 at a multiplicity of infection (MOI) greater than 10, diluted in appropriate medium. At 1 hour post infection (hpi) medium was removed, cells were washed twice with phosphate-buffered saline (PBS), and fresh medium was added. At 24 hpi supernatants were harvested for virus titre by plaque assay.
# (§3) For SINV and SFV4, confluent BSR cell monolayers were infected with 10-fold dilutions of samples. At 1 hpi cells were overlayed with low melting-point agarose in 2×MEM (+5% FCS). Cells were fixed at 72 hpi and stained with toluidine blue, allowing plaques to be counted.
# (§4) TSG101 inhibitor Ilaprazole (Sigma-Aldrich) was diluted in 100% DMSO. […]
# [2] = system: Herpes Simplex Virus-1 (HSV-1); experiment: HSV-1 titre by plaque assay (HaCaT cells infected, titrated on VERO cells); assay type: cell-based; conditions: 20 μM, MOI 10, 16 hrs
# Procedure: (§5) FIG. 9: Inhibition of MAT2A with PF-9366 reduces Herpes Simplex Virus-1 (HSV-1) virion assembly Immortalised keratinocyte (HaCaT) cells were plated and treated with 20 μM PF-9366 or DMSO control. After 3 hrs cells were infected with HSV-1 (MOI 10). After 16 hrs cells were harvested by scraping and either pelleted for western blot or freeze/thawed for titration. To titre: VERO cells were plated and the following day infected with 10-fold dilutions, at 1 hpi cells were overlayed with CMC/media. At 48 hpi cells were fixed and stained with toluidine blue. To western blot: Pellets were lysed and run on SDS-PAGE gel. Proteins were transferred overnight to nitrocellulose membranes. Membranes were probed for HSV-1 ICP0 and VP16 proteins and Tubulin as a control.
# (§6) For HSV-1 infections HaCaT cells were infected with HSV-1 at a multiplicity of infection (MOI) of 10 diluted in appropriate medium. At 1 hour post infection (hpi) medium was removed, cells were washed twice with phosphate-buffered saline (PBS), and fresh medium was added with or without inhibitors. At 16 hpi cells were either harvested for western blot or virus titre by plaque assay.
# For HSV-1, confluent VERO cell monolayers were infected with 10-fold dilutions of samples. […] Cells were fixed at 48 hpi and stained with toluidine blue, allowing plaques to be counted. […]
# MAT2A = experiment: Western blot of cellular MAT2A expression in BKPyV infected RPTE/TERT1 cells; assay type: cell-based, human; conditions: 10 μM; BKPyV MOI 3; 48 hpi; normalised to tubulin
# Procedure: (C)(i) Effect of PF-9366 on viral early and late gene and cellular MAT2A expression: Cells were infected with BKPyV (MOI 3) in media containing appropriate drug concentrations. At 1 hpi infectious media was removed, cells were washed and fresh media with appropriate drug concentrations was added. Cells were harvested at 48 hpi and a western blot performed. Membranes were blotted for viral late gene VP1, LTAg, cellular MAT2A/MAT1A, and tubulin as a loading control.
# (ii) Cellular MAT2A expression increases at lower PF-9366 concentrations: The density of MAT2A expression (lower western blot band) was measured, normalized to tubulin loading control (LiCor Image Studio Software), n=3.
# It has previously been noted by Quinlan et al. (Nat Chem Biol. 2017 13 (7): 785-792) that treatment with PF-9366 can increase MAT2A expression as a compensatory mechanism within cells. […] At 48 hpi cells were harvested and protein expression was analysed by western blotting (FIG. 3C(i)). MAT2A expression was quantified from band intensities, normalised to the tubulin loading control and plotted (FIG. 3C(ii), n=3). […]
# (§7) Cell lysate preparation and western blots were performed as described in Ren et al. (J Gen Virol. 2012 February; 93 (Pt 2): 319-329). […] Quantification was performed using LI-COR Image Studio Software.
# [3] = system: Herpes Simplex Virus-1 (HSV-1); experiment: Western blot of HSV-1 ICP0 and VP16 proteins in HaCaT cells; assay type: cell-based; conditions: 20 μM, MOI 10, 16 hrs
# Procedure: as §5, §6, §7
# Sindbis virus (SINV) = experiment: SINV titre by plaque assay (BHK-21 cells infected, titrated on BSR cells); assay type: cell-based; conditions: 2 μM, MOI >10, 24 hrs, initial tests
# Procedure: as §1, §2, §3, §4
smiles,measurement,setting,value
CN(C)CCc1nnc2cc(-c3ccccc3)c3cc(Cl)ccc3n12 [PF-9366],"viral protein expression (Zika E protein), American strain",Zika American Strain,reduction
same,reduction in viral titre (SFV4),[1],7-10 fold
same,reduction in HSV-1 viral titres,[2],greater than 100 fold
same,increase in the cellular expression of MAT2A,MAT2A,8 fold
same,impact on viral protein expression (ICP0 and VP16),[3],little impact
same,reduction in viral titre (SINV),Sindbis virus (SINV),7-10 fold
